“And” between values parts separate entries of the source, which are not always exact repeats. Identical values can stand only once. After the bases stand the sugars from the 5' end (letter, count) and the backbone: PS all phosphorothioate, else s phosphorothioate and o phosphodiester by linkage. Methylation of C is not given here. e = 2'-O-(2-methoxyethyl) (MOE); k = constrained ethyl (cEt); d = 2'-deoxy (DNA)
What follows are sequences tested against IRF4. Details: ASO, MM.1R, 0.0625 µM.
Work on CGACACGCGCCGCTCG (sugars k3 d10 k3, PS) yielded a target mRNA inhibition of -6%.
With GAAAATCTGGATGAGC (sugars k3 d10 k3, PS) the target mRNA inhibition was 7%.

Same assay, conditions: ASO, MM.1R, 0.074 µM
“CTCTATAGTGTTCCAG (sugars k3 d9 k3 e1, PS)” gave a target mRNA inhibition of 14%.
GAAAATCTGGATGAGC (sugars k3 d10 k3, PS) was tested, and the target mRNA inhibition was 11%.

Same assay, conditions: ASO, MM.1R, 0.222 µM
Work on “CTCTATAGTGTTCCAG (sugars k3 d9 k3 e1, PS)” yielded a target mRNA inhibition of 30%.
Work on GAAAATCTGGATGAGC (sugars k3 d10 k3, PS) yielded a target mRNA inhibition of -1%.

Same assay, conditions: ASO, MM.1R, 0.25 µM
Work on CGACACGCGCCGCTCG (sugars k3 d10 k3, PS) yielded a target mRNA inhibition of -10%.
GAAAATCTGGATGAGC (sugars k3 d10 k3, PS) showed a target mRNA inhibition of 8%.

Same assay, conditions: ASO, MM.1R, 0.666 µM
“CTCTATAGTGTTCCAG (sugars k3 d9 k3 e1, PS)” showed a target mRNA inhibition of 54%.
Work on GAAAATCTGGATGAGC (sugars k3 d10 k3, PS) yielded a target mRNA inhibition of -26%.

Same assay, conditions: ASO, MM.1R, 1 µM
Sequence CCTGTGCAAAACCAGT (sugars k3 d10 k3, PS) has a target mRNA inhibition of -10%.
CCTTACCTCGCCCTGG (sugars k3 d10 k3, PS) gave a target mRNA inhibition of -31%.
CCTTACCTGACAAGAA (sugars k3 d10 k3, PS) gave a target mRNA inhibition of -11%.
Sequence CGCACGGACGAACGCG (sugars k3 d10 k3, PS) has a target mRNA inhibition of -17%.
In the case of CGCAGGAGCGCGGAGG (sugars k3 d10 k3, PS), the target mRNA inhibition is reported as -28%.
For CGCCCGACCCTCCCCA (sugars k3 d10 k3, PS), the target mRNA inhibition was -24%.
CGCCGGCACAGGCGCG (sugars k3 d10 k3, PS) showed a target mRNA inhibition of 14%.
For CGCGCAAGTCTACAGC (sugars k3 d10 k3, PS), the target mRNA inhibition was 13%.
Work on CGGGTCTGAGATGTCC (sugars k3 d10 k3, PS) yielded a target mRNA inhibition of -2%.
With CGTAACAACGACACAC (sugars k3 d10 k3, PS) the target mRNA inhibition was -35%.
Work on CGTAGTCCCTCCAGCT (sugars k3 d10 k3, PS) yielded a target mRNA inhibition of 27%.
For “CGTGTGCTTGCCAAGC (sugars kkdddddddddkekek, PS)”, the target mRNA inhibition was 49% and 43%.
CTACTCTTCAGGCACC (sugars k3 d10 k3, PS) was tested, and the target mRNA inhibition was 18%.
“CTATAGTGTTCCAGGA (sugars k3 d9 k3 e1, PS)” showed a target mRNA inhibition of 31%.
“CTATAGTGTTCCAGGA (sugars kkkddddddddkekek, PS)” was tested, and the target mRNA inhibition was 23%.
Work on CTCATCACCGAACACA (sugars k3 d10 k3, PS) yielded a target mRNA inhibition of 8%.
“CTCTATAGTGTTCCAG (sugars k3 d9 k3 e1, PS)” showed a target mRNA inhibition of 65%.
“CTCTATAGTGTTCCAG (sugars kkdddddddddkekek, PS)” was tested, and the target mRNA inhibition was 22%.
With CTGAAACGGTCAGCAG (sugars k3 d10 k3, PS) the target mRNA inhibition was 3%.
For CTGAAAGCGAGTCAGA (sugars k3 d10 k3, PS), the target mRNA inhibition was 6%.
Work on CTGAGACTACACCTAC (sugars k3 d10 k3, PS) yielded a target mRNA inhibition of -40%.
In the case of CTGAGTTACCGCATTG (sugars k3 d10 k3, PS), the target mRNA inhibition is reported as 49% and 54%.
For CTGCCAAGTTGAAGAC (sugars k3 d10 k3, PS), the target mRNA inhibition was 33%.
For “CTGCTTGAGGTTTTCC (sugars kddddddddddkekek, PS)”, the target mRNA inhibition was 8%.
“CTGCTTGAGGTTTTCC (sugars kkdddddddddkdkdk, PS)” gave a target mRNA inhibition of 36%.
For “CTGTTACCGATGCTTC (sugars kddddddddddkekek, PS)”, the target mRNA inhibition was 36% and 26%.
CTTAGGCACATCAATG (sugars k3 d10 k3, PS) gave a target mRNA inhibition of 8%.
In the case of “CTTGATAAAGGCTGAA (sugars k2 d9 e3 k2, PS)”, the target mRNA inhibition is reported as 10%.
“CTTGATAAAGGCTGAA (sugars k3 d9 k3 e1, PS)” was tested, and the target mRNA inhibition was 36%.
With “CTTGATAAAGGCTGAA (sugars kkdddddddddekeke, PS)” the target mRNA inhibition was 19%.
“CTTGATAAAGGCTGAA (sugars kkkddddddddkekek, PS)” was tested, and the target mRNA inhibition was 12%.
GAAAATCTGGATGAGC (sugars k3 d10 k3, PS) gave a target mRNA inhibition of 22%.
For GAACACACCACTATTC (sugars k3 d10 k3, PS), the target mRNA inhibition was -20%.

Same assay, conditions: ASO, MM.1R, 2 µM
Sequence “CTCTATAGTGTTCCAG (sugars k3 d9 k3 e1, PS)” has a target mRNA inhibition of 76%.

Same assay, conditions: ASO, MM.1R, 4 µM
For CGACACGCGCCGCTCG (sugars k3 d10 k3, PS), the target mRNA inhibition was -13%.
Sequence GAAAATCTGGATGAGC (sugars k3 d10 k3, PS) has a target mRNA inhibition of 59%.

Same assay, conditions: ASO, SK-MEL-28, 0.185 µM
For CGCAGAGCCAGTAGGG (sugars k3 d10 k3, PS), the target mRNA inhibition was 16% and 4% and 12%.

Same assay, conditions: ASO, SK-MEL-28, 4 µM
With CCTTAGGATAATATAC (sugars k3 d10 k3, PS) the target mRNA inhibition was 23%.
Sequence CGAAAAGTCAAAATAC (sugars k3 d10 k3, PS) has a target mRNA inhibition of 0%.
With CGAGCGGTGAAACTGA (sugars k3 d10 k3, PS) the target mRNA inhibition was 33%.
With CGCAGAGCCAGTAGGG (sugars k3 d10 k3, PS) the target mRNA inhibition was 67%.
Sequence CGCCAGTGACCACGAG (sugars k3 d10 k3, PS) has a target mRNA inhibition of 42%.
With CGCCGAAGTCAACAGG (sugars k3 d10 k3, PS) the target mRNA inhibition was 44%.
Work on CGCCTTAATGTTCAGC (sugars k3 d10 k3, PS) yielded a target mRNA inhibition of 66%.
CGCGCAAAGGGCAAGG (sugars k3 d10 k3, PS) showed a target mRNA inhibition of 34%.
In the case of CGGAGCTTCCCGTTGC (sugars k3 d10 k3, PS), the target mRNA inhibition is reported as 35%.
Sequence CGGGAATTTCCATTGG (sugars k3 d10 k3, PS) has a target mRNA inhibition of 50%.
CGGGAGAGCGGAGGCG (sugars k3 d10 k3, PS) gave a target mRNA inhibition of 0%.
With CGGGAGATAAAGAACA (sugars k3 d10 k3, PS) the target mRNA inhibition was 31%.
Work on CGGTAGAGTGAGATGC (sugars k3 d10 k3, PS) yielded a target mRNA inhibition of 54%.
CGTAATACAAATAAAG (sugars k3 d10 k3, PS) showed a target mRNA inhibition of 3%.
CGTCAAGGAGGCCTGG (sugars k3 d10 k3, PS) gave a target mRNA inhibition of 43%.
In the case of CGTCATGGGACATTGG (sugars k3 d10 k3, PS), the target mRNA inhibition is reported as 56%.
Work on CGTGAAACAGCAGTTC (sugars k3 d10 k3, PS) yielded a target mRNA inhibition of 40%.
CGTTCCTTTTCAGAGT (sugars k3 d10 k3, PS) was tested, and the target mRNA inhibition was 30%.
Work on CGTTCTCCCACACCAG (sugars k4 d8 k4, PS) yielded a target mRNA inhibition of -1%.
CTAAAGAATGAGGGTC (sugars k3 d10 k3, PS) was tested, and the target mRNA inhibition was 62%.
Work on CTACCTCAGTTTGTGA (sugars k3 d10 k3, PS) yielded a target mRNA inhibition of 41%.
CTACCTTTTTTGGCTC (sugars k3 d10 k3, PS) showed a target mRNA inhibition of 17%.
CTACTGGGTACATGGC (sugars k3 d10 k3, PS) was tested, and the target mRNA inhibition was 84%.
CTAGATTCTCCCTGCA (sugars k3 d10 k3, PS) was tested, and the target mRNA inhibition was 34%.
CTAGTCAGTGTCAATA (sugars k3 d10 k3, PS) gave a target mRNA inhibition of 51%.
Sequence CTATATAAAAAGTGGG (sugars k3 d10 k3, PS) has a target mRNA inhibition of 16%.
CTATTAAACAGCACTC (sugars k3 d10 k3, PS) was tested, and the target mRNA inhibition was 18%.
CTATTATAGAGCATCA (sugars k3 d10 k3, PS) showed a target mRNA inhibition of 55%.
CTCACACACAGGATGT (sugars k3 d10 k3, PS) was tested, and the target mRNA inhibition was 18%.
In the case of CTCCAGGGATGGAACA (sugars k3 d10 k3, PS), the target mRNA inhibition is reported as 19%.
For CTCCATCAATCATGAT (sugars k3 d10 k3, PS), the target mRNA inhibition was 33%.
With CTCCTTTTTTGGCTCC (sugars k4 d8 k4, PS) the target mRNA inhibition was 7%.
In the case of CTCTGCTCTGCACTCG (sugars k3 d10 k3, PS), the target mRNA inhibition is reported as 41%.
CTCTTACTCCGCTGAG (sugars k3 d10 k3, PS) showed a target mRNA inhibition of -5%.
In the case of CTGAACTGAAATCTCC (sugars k3 d10 k3, PS), the target mRNA inhibition is reported as 64% and 63%.
CTGAACTGTGTAACTC (sugars k3 d10 k3, PS) was tested, and the target mRNA inhibition was 28%.
CTGATCGCTGGACAGC (sugars k3 d10 k3, PS) gave a target mRNA inhibition of 20%.
For CTGCACTCGCCCTGGA (sugars k3 d10 k3, PS), the target mRNA inhibition was 42%.
For CTGCAGCCAAGGATAA (sugars k3 d10 k3, PS), the target mRNA inhibition was 48%.
CTGCATCAAATCAAGT (sugars k3 d10 k3, PS) showed a target mRNA inhibition of 47%.
For CTGCATTTGCAAATAA (sugars k4 d8 k4, PS), the target mRNA inhibition was -8%.
With CTGGAACATTGTTGGA (sugars k3 d10 k3, PS) the target mRNA inhibition was 46%.
Sequence CTGGAGAGCAATGAAC (sugars k3 d10 k3, PS) has a target mRNA inhibition of 67%.
Sequence CTGGAGTGAACCCTTC (sugars k3 d10 k3, PS) has a target mRNA inhibition of 56%.
Sequence CTGGCATCGAGACGGG (sugars k3 d10 k3, PS) has a target mRNA inhibition of 47%.
With CTGGCTCCGCTCAACC (sugars k3 d10 k3, PS) the target mRNA inhibition was 52%.
With CTGTAACTGACTAACA (sugars k3 d10 k3, PS) the target mRNA inhibition was 23%.
CTGTAGGATTTTACAT (sugars k3 d10 k3, PS) gave a target mRNA inhibition of 24%.
CTGTAGTATGAGAAAC (sugars k3 d10 k3, PS) showed a target mRNA inhibition of 45%.
Sequence CTGTTAGCTACAAAGA (sugars k3 d10 k3, PS) has a target mRNA inhibition of 56%.
CTTAGAATGCATAACA (sugars k3 d10 k3, PS) gave a target mRNA inhibition of 26%.
Work on CTTATAGCACTCTCCT (sugars k3 d10 k3, PS) yielded a target mRNA inhibition of 33%.
Sequence CTTCACTCAGCAAGTG (sugars k3 d10 k3, PS) has a target mRNA inhibition of 43%.
CTTCATCAGACTAAGT (sugars k3 d10 k3, PS) gave a target mRNA inhibition of 31%.
In the case of CTTCTTCTTTATGCGA (sugars k3 d10 k3, PS), the target mRNA inhibition is reported as 66%.
CTTGCCAGTGGTGGCC (sugars k4 d8 k4, PS) was tested, and the target mRNA inhibition was -9%.
For CTTGCCGCTGTCGATC (sugars k3 d10 k3, PS), the target mRNA inhibition was 25%.
For CTTGGAGAAGTCCCGT (sugars k3 d10 k3, PS), the target mRNA inhibition was 39%.
For CTTGTTCAAAGCGCAC (sugars k3 d10 k3, PS), the target mRNA inhibition was 32%.
CTTTAGCCCATGCTCC (sugars k3 d10 k3, PS) gave a target mRNA inhibition of 20%.
Sequence CTTTATGCGAAGAATT (sugars k3 d10 k3, PS) has a target mRNA inhibition of 30%.
Work on CTTTCACTAAAGTCAA (sugars k3 d10 k3, PS) yielded a target mRNA inhibition of 51%.
Sequence CTTTTTTGGCTCCCTC (sugars k3 d10 k3, PS) has a target mRNA inhibition of 36%.
GAAAACAGCCGCCGGC (sugars k3 d10 k3, PS) gave a target mRNA inhibition of 26%.
With GAAAATCTGGATGAGC (sugars k3 d10 k3, PS) the target mRNA inhibition was 64%.
With GAAACCGCTGGCAGGT (sugars k3 d10 k3, PS) the target mRNA inhibition was 50%.
For GAAAGGAGGTAGTGGC (sugars k3 d10 k3, PS), the target mRNA inhibition was 23%.
GAAATACGACAACTTT (sugars k3 d10 k3, PS) was tested, and the target mRNA inhibition was 22%.
With GAACAATCCTGTACAC (sugars k3 d10 k3, PS) the target mRNA inhibition was -5%.
In the case of GAACAATCCTGTACAC (sugars k4 d8 k4, PS), the target mRNA inhibition is reported as 0%.

Same assay, conditions: ASO, SK-MEL-28, 5 µM
In the case of CGCAGAGCCAGTAGGG (sugars k3 d10 k3, PS), the target mRNA inhibition is reported as 56% and 59% and 77%.

Same assay, conditions: ASO, SK-MEL-28, 15 µM
CGCAGAGCCAGTAGGG (sugars k3 d10 k3, PS) was tested, and the target mRNA inhibition was 81% and 82% and 91%.

Source: the OligoGym collection
